Laboratory results published in patent publication US4888287A, “Rapid differentiation of fungi from bacteria using polyene antibiotics” (Eastman Kodak Company, priority 1986, dated 1989).

What was measured:
[1] = test system: C. albicans; experiment: Inhibition of RIND IX reduction by C. albicans (yeast) in solution (Example 1, Table II); format: cell-based, Candida albicans (ATCC 14053); conditions: Method 2 (antibiotic preincubated with cells 37° C., 30 min), 635 nm
Protocol: The following materials were used in this example: stock solutions of RIND IX compound dispersion prepared as described above, glucose (10% in water), trimethyl-1,4-benzoquinone ETA (1.5 mg/ml methanol), and the antibiotics (25 mg/ml in dimethyl sulfoxide, except that filipin was 12.5 mg/ml of solvent). Bacteria and yeast were grown as described above. The approximate final cell concentrations in the assay mixture were 4.2×10^8 cells/ml of E. coli, 7.1×10^8 cells/ml of S. aureus, and 7×10^5 of C. albicans.
Test solutions were prepared by adding in order: 1.2 ml of HEPES buffer, 50 μl glucose solution, 1.5 ml of RIND IX dispersion, 100 μl of antibiotic solution, 100 μl of cell suspension and 25 μl of ETA solution. Cell control solutions contained all reagents except antibiotics. Background controls consisted of both buffer and solution controls. The buffer control contained all reagents except antibiotics and cells. The solution control contained all reagents except cells. Optical density readings (OD) were measured at 635 nm at 0 minutes and after incubation at 37° C. for 30 minutes for test and Control solutions, and the change in density (ΔOD) was determined. […] The corrected percent inhibition is calculated by dividing the difference between the ΔOD obtained from the Control without antibiotic and the ΔOD of the test solution, by ΔOD of the Control without antibiotic. All readings were corrected by subtracting readings of the appropriate background control.
Solutions containing 2.9 ml HEPES, 50 μl of the antibiotic solution, and 100 μl cell solution were incubated at 37° C. for 30 minutes, centrifuged for 10 minutes and decanted. The resulting pellet was then treated with 1.4 ml HEPES, 50 μl glucose solution, 1.5 ml RIND IX dispersion and 25 μl ETA solution, mixed well and the optical densities recorded as described above in Method 1. The corrected percent inhibition data was calculated as described in Method 1 above.

[2] = test system: S. aureus; experiment: Inhibition of RIND XXXV reduction by S. aureus, microtitration plate, fluorescence (Example 2, Table III); format: cell-based, Staphylococcus aureus (ATCC 25923); conditions: Staphylococcus aureus, 0.5 h, S. aureus (gram +), 37° C., 30 min, read-out: Corrected Percent Inhibition
Protocol: (§1) gram-negative microorganism Escherichia coli (ATCC 25922), gram-positive microorganism Staphylococcus aureus (ATCC 25923), and Candida albicans yeast cells (ATCC 14053), brain heart infusion broth (BHI) and Sabaroud's dextrose broth (SAB) from Difco Laboratories (Detroit, Michigan, U.S.A.), and Aspergillus flavus (ATCC 20047), a mold from American Type Culture Collection (Rockville, Maryland, U.S.A.).
(§2) E. coli and S. aureus were grown overnight in BHI broth at 37° C. C. albicans and A. flavus were grown overnight at 25° C. in SAB broth with agitation. The cells were harvested by centrifugation, washed and resuspended in 0.05 molar N-2-hydroxyethylpiperazine-N'-2-ethanesulfonic acid (HEPES) buffer (pH 7.8).
(§3) Dispersions containing RIND compounds were prepared by dissolving, for example, RIND VII from Table I above in N,N-dimethylformamide (DMF) at 16 mg compound per ml of solvent. An aliquot (250 μl) of the resulting solution was added to 500 μl of TRITON X-100 surfactant. This mixture was then added dropwise with stirring to 25 ml of 0.05 molar HEPES buffer. A solution containing a water-compatible RIND compound (for example, RIND XXXV) was prepared by dissolving the compound in N,N-dimethylformamide which had been acidified with 0.1% sulfuric acid (16 mg RIND compound per ml of solvent).
(§4) A composition was prepared from the following components: 100 μl RIND XXXV solution (16 mg RIND compound per ml of acidified N,N-dimethylformamide), 200 μl glucose solution (10% in water), 200 μl trimethyl-1,4-benzoquinone ETA solution (1.5 mg/ml methanol) and 10 ml HEPES buffer.
(§5) Test solutions were prepared using the following reagents: 50 μl HEPES buffer, 50 μl filipin polyene antibiotic (12.5 mg/ml dimethylsulfoxide)(serial dilutions of buffer and antibiotic solutions were performed to obtain various antibiotic concentrations), 50 μl of the appropriate cell suspensions, that is, E. coli (about 10^8 cells/ml), S. aureus (about 10^8 cells/ml), C. albicans (about 10^7 cells/ml) and A. flavus, and […] of the RIND composition described above.
(§6) Control solutions were prepared as described in Example 1. Relative fluorescence was measured using a Dynatech MICROFLUOR Reader (Dynatech Laboratories, Alexandria, Virginia) modified to read at excitation 540 nm and emission 620 nm, at zero time and after incubation at 37° C. for 30 minutes. The change in relative fluorescence was then determined as the difference of the two values.

[3] = test system: C. albicans; experiment: Inhibition of RIND XXXV reduction by C. albicans, microtitration plate, fluorescence (Example 2, Table III); format: cell-based, Candida albicans (ATCC 14053); conditions: Candida albicans, 0.5 h, C. albicans (yeast), 37° C., 30 min, read-out: Corrected Percent Inhibition
Protocol: as §1, §2, §3, §4, §5, §6

[4] = test system: S. aureus; experiment: Inhibition of MTT tetrazolium salt reduction by S. aureus, microtitration plate (Example 3, Table IV); format: cell-based, Staphylococcus aureus (ATCC 25923); conditions: Staphylococcus aureus, 0.5 h, S. aureus (gram +), 540 nm, 37° C., 30 min, read-out: Corrected Percent Inhibition
Protocol: as §1, §2
(§7) The differentiations of yeast and mold from bacteria were carried out in microtitration plates. The cell suspensions used were like those described in Example 2. The reducible compound used was 3-(4,5-dimethyl-2-thiazolyl)-2,5-diphenyl-2H-tetrazolium bromide (MTT). A composition containing MTT was prepared with the following components: 200 μl MTT solution (5 mg/ml methanol), 200 μl glucose solution (10% glucose in water), 200 μl trimethyl-1,4-benzoquinone ETA and 12 ml of HEPES buffer (0.05 molar, pH 7.8).
as §5, with “components:” for “reagents:”, “suspension, i.e.” for “suspensions, that is,”, “MTT” for “RIND”, “noted” for “described”, “above. Cell Controls contained all reagents except the antibiotic. Background was measured with buffer. Solution Controls contained all reagents except cells.” for “above.”
(§8) Optical density measurements were made at 540 nm using a commercially available spectrophotometer, and the change in optical density (ΔOD) was determined after 30 minutes at 37° C. […] It is apparent that the concentration effective for differentiation of yeast is different than for mold. However, it is well within the skill of a worker in the art to determine the appropriate concentration for a given test.

[5] = test system: C. albicans; experiment: Inhibition of MTT tetrazolium salt reduction by C. albicans, microtitration plate (Example 3, Table IV); format: cell-based, Candida albicans (ATCC 14053); conditions: Candida albicans, 0.5 h, C. albicans (yeast), 540 nm, 37° C., 30 min, read-out: Corrected Percent Inhibition
Protocol: as §1, §2, §7
as §5, with “components:” for “reagents:”, “suspension, i.e.” for “suspensions, that is,”, “MTT” for “RIND”, “noted” for “described”, “above. Cell Controls contained all reagents except the antibiotic. Background was measured with buffer. Solution Controls contained all reagents except cells.” for “above.”
as §8

[6] = test system: E. coli; experiment: Inhibition of RIND XXXV reduction by E. coli, dry analytical element (Example 4, Table V); format: cell-based, Escherichia coli (ATCC 25922); conditions: E. coli (gram -), 37° C., 30 min
Protocol: as §1, §2
Dispersions containing RIND compounds were prepared by dissolving, for example, RIND VII from Table I above in N,N-dimethylformamide (DMF) at 16 mg compound per ml of solvent. An aliquot (250 μl) of the resulting solution was added to 500 μl of TRITON X-100 surfactant. […]
A standard paper punch was used to cut circular elements (about 0.6 cm in diameter) from the dried strips. […] Buffer solution was applied to separate elements for background readings.
Relative fluorescence (excitation at 540 nm and emission at 620 nm) was measured using a Dynatech MICROFLUOR reader at zero time and after 30 minutes incubation at 37° C., and the change in relative fluorescence was determined.

## CCCCC[C@@H](O)[C@H]1C(=O)O[C@H](C)[C@@H](O)/C=C/C=C/C=C/C=C/C=C(\C)[C@@H](O)C[C@H](O)C[C@H](O)C[C@H](O)C[C@H](O)C[C@H](O)C[C@@H]1O [Filipin, filipin]
[1]
  Corrected % Inhibition: 97.5%
[2]; 0.26 mg/ml
  inhibition at 260 µg/mL: 7.5%
[2]; 0.52 mg/ml
  inhibition at 520 µg/mL: 8.6%
[2]; 1.04 mg/ml
  inhibition at 1040 µg/mL: 14.8%
[2]; 2.08 mg/ml
  inhibition at 2080 µg/mL: 18.2%
[3]; 0.26 mg/ml
  inhibition at 260 µg/mL: 56.8%
[3]; 0.52 mg/ml
  inhibition at 520 µg/mL: 71%
[3]; 1.04 mg/ml
  inhibition at 1040 µg/mL: 80.7%
[3]; 2.08 mg/ml
  inhibition at 2080 µg/mL: 86.8%
[4]; 0.26 mg/ml
  inhibition at 260 µg/mL: 0%
[4]; 0.52 mg/ml
  inhibition at 520 µg/mL: 0%
[4]; 1.04 mg/ml
  inhibition at 1040 µg/mL: 0%
[4]; 2.08 mg/ml
  inhibition at 2080 µg/mL: 0%
[5]; 0.26 mg/ml
  inhibition at 260 µg/mL: 10.3%
[5]; 0.52 mg/ml
  inhibition at 520 µg/mL: 50%
[5]; 1.04 mg/ml
  inhibition at 1040 µg/mL: 60.3%
[5]; 2.08 mg/ml
  inhibition at 2080 µg/mL: 100%
[6]
  Corrected Percent Inhibition: 18%
